Laboratory results from patent publication US20240173231A1, “COSMETIC SKIN CARE COMPOSITION” (Conopco, Inc., d/b/a UNILEVER, priority 2021, published 2024).
Marks after values point to notes of the source that are not given here.

Assays:
Type in all cases: cell-based, human
YAP/TAZ = assay: Nuclear translocation assay to identify activators of YAP/TAZ bioactivity, fibroblasts on fibronectin micro-islands; conditions: for Mechano-transduction Activation (% Increase): 20 uM, 2 hours, YAP/TAZ nucleus/cytoplasm ratio normalised to control and LPA; for Induction of mechano-transduction signaling (translocation of cytoplasmic YAP/TAZ into the nucleus), in words: over the vehicle DMSO
Experimental: Cellular localization of YAP can be regulated by the rigidity of the substrate or ECM that cells are attached to, or the degree to which cells can spread on a substrate. Thus in vitro models can be useful to engineer low states of YAP activity.
Briefly, primary human dermal fibroblasts were seeded on microprinted substrate islands (<1000 μm^2) of fibronectin and incubated overnight at 37° C., 5% CO2 in a cell culture incubator. Next, fibroblasts were treated with materials described in Table 1. After the treatment period of 2 hours, cells were fixed and stained: nuclei were stained with Hoechst dye and YAP/TAZ was stained with a mouse antibody to YAP/TAZ (Santa Cruz Biotechnology), followed by the secondary fluorescently tagged antibody (donkey anti-mouse AlexaFluor 488). Microscopic images were acquired and YAP/TAZ fluorescent signal measured in the cytoplasm and nucleus of each cell. The fluorescence intensity measured in the nucleus is divided by the one measured in the cytoplasm to obtain the YAP/TAZ ratio readout as described below Table 1.

procollagen-I = assay: Procollagen type 1 C-peptide (PIP) EIA on media of dermal fibroblasts on soft hydrogel; conditions: for Procollagen: day 6; for Effect on procollagen-I synthesis in human dermal fibroblasts, in words: substrates mimicking the biomechanical properties of skin
Experimental: Since YAP activity is highly dependent on substrate rigidity it was necessary to develop and perform assays on substrates with tunable mechanical properties.
Primary human dermal fibroblasts (P3) are plated at 31,579 cells per cm2 into 24-well […] collagen coated hydrogel plates in 1 ml 2% fetal bovine serum in Dulbecco's Modified Eagles Media (DMEM) and maintained 24 hours in a cell culture incubator at 5% carbon dioxide. The cells were washed twice with Dulbecco's Phosphate Buffered Saline then 1 ml of DM EM supplemented with 0.6% fatty acid free bovine serum albumin. The cells were maintained for 24 hours in a cell culture incubator at 5% carbon dioxide.
Two hundred microliter of media was removed from each well. To each well were added 100 ul of 500 ug per ml ascorbic acid in DMEM supplemented with 0.6% fatty acid free bovine serum albumin. Test materials were diluted to 10X final concentration in DMEM supplemented with 0.6% fatty acid free bovine serum albumin or PBS supplemented with 0.1% fatty acid free bovine serum albumin and 100 ul dosed to duplicate wells. The cells/plates were incubated for 3 days at 37° C., 5% CO2 in a cell culture incubator. On day 3 the media was removed from the wells and 900u1 DMEM supplemented with 0.6% fatty acid free bovine serum albumin plus 50 ug/ml ascorbic acid. The treatments were added as described above. On day 6 after the start of treatment remove 100 ul of the media from each well for the determination of the level of procollagen.
The amount of procollagen in the media samples was determined using the Takara Bio Procollagen type 1 C-peptide (PIP) detection EIA assay. The assay was run following the manufacturer's instructions as following—100 ul of the reconstituted antibody-POD conjugate to the wells of the assay for the number required for the media samples and the standard curve. The procollagen standard solution was 2-fold serial diluted using sample diluent to generate a standard curve of 640, 320, 160, 80, 40, 20, 10 and 0 ng/ml procollagen. The media samples were diluted 1/20 with sample diluent. Twenty ul of the standard curve dilutions were added to the wells of the assay plate in duplicate. The 20 ul media dilutions in sample diluent were added to the wells of the assay plate in singlet. The plate was incubated for 3 hours at 37° C., washed 4 times with phosphate buffered saline wash buffer and tapped to remove all residual wash buffer. One hundred ul of substrate solution (TMBZ) was added to each well and incubate 15 minutes. One hundred ul of stop solution was added to each well, the plate shaken to mix and the optical density at 450 nm read in a plate reader. The amount of procollagen in the test samples was calculated from the standard curve values and corrected for the dilution factor and the volume in the well to generate the ng of procollagen in the samples. The amount of procollagen induced by the test materials was compared to the basal media.

[1] = system: CRABPII (cellular retinoic acid binding protein II); assay: CRABPII gene expression by TaqMan real time PCR in dermal fibroblasts
Experimental: (§1) Primary human dermal fibroblasts (P3) are plated at 31,579 cells per cm^2 into 6-well 2 kPa hydrogel collagen coated plates in 2 ml 2% fetal bovine serum in Dulbecco's Modified Eagles Media (DMEM) and maintained 24 hours in a cell culture incubator at 5% carbon dioxide. The cells were washed twice with Dulbecco's Phosphate Buffered Saline DPBS) then 1 ml of DMEM supplemented with 0.6% fatty acid free bovine serum albumin (FAF-BSA). The cells were maintained for 24 hours in a cell culture incubator at 5% carbon dioxide. Four hundred ul of media was removed from each well of the plates. Two hundred ul of the YAP active treatments diluted at 10X the desired final concentration plus 1% DMSO were diluted in DMEM supplemented with 0.6% fatty acid free bovine serum albumin. The control wells were treated with two hundred ul of 1% DMSO were diluted in DMEM supplemented with 0.6% fatty acid free bovine serum albumin. Two hundred ul of water-soluble YAP actives diluted at 10X the desired final concentration diluted in DPBS+0.1% FAF-BSA. The controls wells were treated with 200 ul DPBS+0.1% FAF-BSA. The plates were incubated overnight at 37° C. at 5% CO2. In the AM the plates were dosed with the 220 ul of the water-soluble YAP actives in DPBS +0.1% FAF-BSA or the control well with 220 ul DPBS +0.1% FAF-BSA. After 6 hours the media was aspirate from the wells, the cells washed 2X with DPBS and the plate frozen at -80 °C until the RNA was isolated.
700 ul of RLT buffer plus beta-mercaptoethanol was added to each well immediately after removing the plate from the freezer. The plate was placed on an orbital shaker at 500 revolution per minute up for 15 minutes while the buffer thawed and extracted the cells. […] The RNA samples were quantitated on a NanoDrop 800 and quantity access on an Agilent Bio-analyzer. […] The cDNA samples were evaluated for the expression level of select markers using comparative Taqman analysis using 2 ul of the cDNA per reaction. […]
An independent experiment was conducted using cell culture and RNA isolation methods described in Example 2 to further elucidate the retinyl propionate+ORG synergy (as observed in Table 4) by analyzing a well-described marker of a retinoid activity CRABPII (cellular retinoic acid binding protein II). […] Then, 10 ng cDNA samples per reaction were evaluated for the expression level of CRABPII using primers and comparative TaqMan™ Gene Expression Assay and TaqMan™ Fast Advanced Master (FAM) Mix (purchased from Applied Biosystems™) and run in a ViiA™ 7 Real Time PCR System (from Applied Biosystems™). Percent increases in CRABPII expression was calculated by converting the log2fold-change to a percentage increase using the following formula: Percent increase=100*(2^log2FC)-100.

COL4A1 = assay: mRNA gene expression in dermal fibroblasts on 2 kPa hydrogel (RNA-seq); conditions: vs. Vehicle
Experimental: as §1
(§2) The RNA was isolated using the Qiagen RNeasy mini kit following the manufacturer's instruction with the following modifications—
(§3) 700 ul of RLT buffer plus beta-mercaptoethanol was added to each well immediately after removing the plate from the freezer. The plate was placed on an orbital shaker at 500 revolution per minute up for 15 minutes while the buffer thawed and extracted the cells. The cell lysate was transfer to Qiashedders and pass the Qiashedder to disrupt the cells. The recovery lysate was mixed with an equal volume of 70% Ethanol, 30% water. The RNA was purified on the minicolumns including the DNase step to remove DNA contamination. The RNA samples were quantitated on a NanoDrop 800 and quantity access on an Agilent Bio-analyzer. An aliquot of the RNA samples was reverse transcribed in cDNA then diluted to 5 ng/ul of input RNA. The cDNA samples were evaluated for the expression level of select markers using comparative Taqman analysis using 2 ul of the cDNA per reaction. The level of RNA expression was compared using the delta delta Cycle threshold (ddCt) method. Aliquot of the RNAs were also submitted to Lexogen (Vienna, Austria) for RNA-seq analysis.
(§4) Shown in Table 5 is the average percent increase in mRNA expression for genes involved in extracellular matrix production following ORG treatment relative to the vehicle control, along with the Benjamini-Hochberg adjusted p-values (adj.p.value) calculated by converting the average log2fold-change (calculated using DESeq2) to a percentage increase using the following formula: Percent increase=100*(2^log2FC)-100.

ELN = assay: as above; conditions: vs. Vehicle
Experimental: as §1, §2, §3, §4

FBN1 = assay: as above; conditions: vs. Vehicle
Experimental: as §1, §2, §3, §4

COL1A1 = assay: as above; conditions: vs. Vehicle
Experimental: as §1, §2, §3, §4

COL5A1 = assay: as above; conditions: vs. Vehicle
Experimental: as §1, §2, §3, §4

HAS2 = assay: as above; conditions: vs. Vehicle
Experimental: as §1, §2, §3, §4

FN1 = assay: as above; conditions: vs. Vehicle
Experimental: as §1, §2, §3, §4

COL3A1 = assay: as above; conditions: vs. Vehicle
Experimental: as §1, §2, §3, §4

[2] = Experiment 1, 50 μM, vehicle control 1933.3
[3] = Experiment 2, 50 μM, vehicle control 2240.5

Compound	Mechano-transduction Activation (% Increase) (YAP/TAZ)	Induction of mechano-transduction signaling (translocation of cytoplasmic YAP/TAZ into the nucleus), in words (YAP/TAZ)	Procollagen (procollagen-I; [2])	Procollagen (procollagen-I; [3])	Effect on procollagen-I synthesis in human dermal fibroblasts, in words (procollagen-I)	other results
CCCCCCCCCCCCCCC(=O)OCC(O)CO (racemic) [1-Pentadecanoyl-rac-glycerol]	25 +/− 26%	do not induce mechano-transduction	–	–	–	–
CCCCCCCCCCCCCCCCCC(=O)OCC(O)CO (racemic) [1-Stearoyl-rac-glycerol]	6 +/− 7%	do not induce mechano-transduction	–	–	–	–
CCCCCCCC/C=C\CCCCCCCC(=O)OCC(O)CO (racemic) [1-oleoyl-rac-glycerol]	17 +/− 10 ** %	significantly induces mechano-transduction signaling	–	–	–	–
CC(C)c1cc2c(cc1O)[C@@]1(C)CC[C@H](O)C(C)(C)[C@@H]1CC2 [Hinokiol]	–	–	1946.1 ng/mL	1843.5 ng/mL	do not exhibit such a pronounced effect	–
CCCCCCCC/C=C\CCCCCCCC(=O)OC[C@@H](O)COP(=O)([O-])O.[Na+] [LPA, Lysophosphatidic acid]	100 +/− 1 ** %	induces mechano-transduction signaling	–	–	–	Procollagen (procollagen-I; Experiment 1, 30 μM, vehicle control 1933.3): 3532.6 ng/mL; Procollagen (procollagen-I; Experiment 2, 30 μM, vehicle control 2240.5): 3381.3 ng/mL
C=CCc1ccc(O)c(-c2cc(CC=C)ccc2O)c1 [Magnolol]	–	–	–	2512.8 ng/mL	do not exhibit such a pronounced effect	–
CCCCCCCC/C=C\CCCCCCCC(=O)NCC(=O)O [Oleoyl Glycinate]	–	–	2474.9 ng/mL	–	do not exhibit such a pronounced effect	–
CCC(=O)OC/C=C(C)/C=C/C=C(C)/C=C/C1=C(C)CCCC1(C)C [retinyl propionate]	–	–	–	–	do not exhibit such a pronounced effect	Effect on CRABPII gene expression, in words [1]: robust increase in CRABPII gene expression; Percent Increase in CRABPII Gene Expression vs Vehicle ([1]; 10 μM): 138%; Procollagen (procollagen-I; Experiment 3, 10 μM, vehicle control 1301.9): 1452.0 ng/mL
oleoyl-rac-glycerol [ORG (Monomuls ®)]	–	–	3084.2 ng/mL	3256.8 ng/mL	promotes the synthesis of procollagen-I	Effect on CRABPII gene expression, in words [1]: more modest increase; Percent Increase in CRABPII Gene Expression vs Vehicle ([1]; 50 μM): 54%; COL4A1 mRNA expression, Percent Increase (COL4A1): 20.36%; ELN mRNA expression, Percent Increase (ELN): 18.49%; FBN1 mRNA expression, Percent Increase (FBN1): 12.36%; COL1A1 mRNA expression, Percent Increase (COL1A1): 21.16%; COL5A1 mRNA expression, Percent Increase (COL5A1): 10.73%; HAS2 mRNA expression, Percent Increase (HAS2): 164.75%; FN1 mRNA expression, Percent Increase (FN1): 15.49%; COL3A1 mRNA expression, Percent Increase (COL3A1): 15.35%; Procollagen (procollagen-I; Experiment 3, 50 μM, vehicle control 1301.9): 2275.4 ng/mL
